Measurements taken from patent publication US7741486B1, “Water-soluble titanium alkoxide material” (Sandia Corporation, priority 2008, dated 2010).

Format: physicochemical
Text: The bidentate nature of the OC6H6N (referred to herein as OPy) group, the steric bulk of the OC6H2(CH2N(CH3)2)3-2,4,6 (referred to herein as TAP) ligand, and the amino functionality of the OC6H2(CH2N(CH3)2)3-2,4,6 ligand combine to effectively limit conventional hydrolysis of the alkoxide while maintaining solubility in aqueous media. Therefore, unlike many other similar compounds, the compound of the present invention is both water soluble and stable in an aqueous solution.
The inhibition of hydrolysis at ligand sites even when the molecule is dispersed in water is attributed to steric constraints imposed by the bidentate pyridine carbinoxide (OPy) and monodentate tri-amino-phenoxide (TAP) groups. It is believed that the amino groups present on the TAP ligand further facilitate water solubilization through H-bonding with the water. The inert character of the molecule to conventional hydrolysis chemistry enables an evaluation of photoexcitation as a means to influence the evolution of intermolecular bond formation.

stability in aqueous solution (resistance to conventional hydrolysis): water-stable
water solubility: water-soluble
Structure (SMILES): CN(C)Cc1cc(CN(C)C)c([O][Ti]([O]Cc2ccccn2)([O]Cc2ccccn2)[O]c2c(CN(C)C)cc(CN(C)C)cc2CN(C)C)c(CN(C)C)c1 [(OC6H6N)2Ti(OC6H2(CH2N(CH3)2)3-2,4,6)2]
